# Where two headings read alike, the source gives them in different places.
# Columns and labels:
# hTLR7 = molecular target: T1, hTLR7 (Homo sapiens, UniProt Q9NYK1); test: EC50 assay for small molecule agonists, HEK-Blue hTLR7 cells, SEAP readout; format: cell-based; conditions: agonist activity, nd = EC50 larger than 25 μM
# T1 construct: host or cells: HEK-Blue hTLR7 (HEK293-derived reporter cells with SEAP read-out)
# T1 sequence (Q9NYK1 27-1049): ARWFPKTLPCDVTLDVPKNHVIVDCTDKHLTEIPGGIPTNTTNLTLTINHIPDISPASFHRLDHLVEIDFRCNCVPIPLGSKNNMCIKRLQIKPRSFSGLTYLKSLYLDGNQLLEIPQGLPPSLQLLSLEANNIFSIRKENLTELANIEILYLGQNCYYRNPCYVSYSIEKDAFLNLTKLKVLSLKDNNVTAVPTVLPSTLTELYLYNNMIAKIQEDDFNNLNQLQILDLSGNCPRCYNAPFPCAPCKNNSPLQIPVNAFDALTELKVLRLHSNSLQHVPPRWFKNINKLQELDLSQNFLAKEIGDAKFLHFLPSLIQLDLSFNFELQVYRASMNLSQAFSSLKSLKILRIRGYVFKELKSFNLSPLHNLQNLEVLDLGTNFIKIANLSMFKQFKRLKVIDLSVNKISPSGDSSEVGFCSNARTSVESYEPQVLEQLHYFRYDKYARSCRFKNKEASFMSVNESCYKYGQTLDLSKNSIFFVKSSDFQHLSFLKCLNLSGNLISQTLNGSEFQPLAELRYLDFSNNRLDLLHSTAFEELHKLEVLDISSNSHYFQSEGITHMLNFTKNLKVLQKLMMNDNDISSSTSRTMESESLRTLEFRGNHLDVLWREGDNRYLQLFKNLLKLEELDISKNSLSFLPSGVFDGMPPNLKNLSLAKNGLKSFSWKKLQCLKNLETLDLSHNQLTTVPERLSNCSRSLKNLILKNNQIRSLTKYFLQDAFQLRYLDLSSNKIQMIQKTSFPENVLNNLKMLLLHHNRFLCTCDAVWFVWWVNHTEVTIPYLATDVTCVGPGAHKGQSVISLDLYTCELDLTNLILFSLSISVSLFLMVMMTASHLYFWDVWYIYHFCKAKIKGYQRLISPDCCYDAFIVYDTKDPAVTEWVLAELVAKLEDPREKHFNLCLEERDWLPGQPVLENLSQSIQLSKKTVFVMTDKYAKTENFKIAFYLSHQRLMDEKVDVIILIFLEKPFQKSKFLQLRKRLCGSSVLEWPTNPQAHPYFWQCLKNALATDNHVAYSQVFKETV
# Protocol: (§1) Reagents used for cell culture and detection for HEK-Blue™ hTLR7, HEK-Blue™ hTLR8 and control HEK-Blue Nu112k were as follows: DMEM (4.5 g/L glucose), bovine serum FBS, streptomycin ([…]), penicillin (50 U/mL), Blasticidin (10 mg/mL), Zeocin™ (10 mg/mL), Normocin (50 mg/mL), and HEK-Blue™ Detection. Basal medium was as follows: DMEM +10% FBS+streptomycin+penicillin+Normocin ([…]); selective medium for resistance genes was as follows: DMEM+10% FBS+streptomycin+penicillin+Normocin (1001 μg/mL)+Blasticidin (1001 μg/mL)+Zeocin™ (1001 μg/mL).
# (§2) Cell preparation: HEK-Blue™ hTLR7 and HEK-Blue™ hTLR8 cell lines were purchased from Invivogen. The cells frozen in liquid nitrogen were taken, quickly placed in a water bath at 37° C., shaken occasionally, and completely melted within 1 min. The cells were transferred to 15 mL of pre-heated basal medium and resuspended; centrifuged at 1,000 r/min for 5 min, supernatant discarded; resuspended with 1 mL of basal medium, transferred to a T25 culture flask, supplemented to 5 mL with the medium, and incubated in an incubator at 37° C.; after stable passage twice, and subjected to selective antibiotic screening: HEK-Blue™ hTLR7 or HEK-Blue™ hTLR8: 100 μg/mL Zeocin+Blasticidin (30 μg/mL), HEK-Blue Nu112-k: 100 μg/mL Zeocin. The fluid was changed 3 times a week. When the number of cells reached 70%-80%, PBS was added, and the cells were exfoliated by gently pipetting.
# (§3) Activity assay steps: (1) adding a test sample to a 96-well plate at 20 μL/well (triplicate wells were set); (2) adding 20 μL of positive control (e.g., R848), and adding 20 μL of negative control (e.g., ddH2O); (3) removing a T75 culture flask from the incubator, discarding the medium, adding 5-10 mL of pre-heated PBS, and gently pipetting the cells; adding 2-5 mL of PBS to the culture flask, incubating the culture flask in the incubator for 1-2 min, and then gently pipetting the cells to make them exfoliated; (4) mixing the mixture well, and counting the cells, without centrifugation; resuspending the cells with HEK-Blue™ assay solution and adjusting the cell number, taking care not to incubate for a long time to avoid too deep background or false positive. HEK-Blue hTLR cell number was about 2.2×10^5/mL, 180 μL/well (about 40000 cells), and HEK-Blue Nu112-k cell number was about 2.8×10^5/mL, 180 μL/well (about 50000 cells). (5) incubating the cells in the incubator at 37° C. for 6-16 h, and detecting at 620-655 nm for SEAP readings.
# (§4) Effect %=(mean OD of the administration group−mean OD of the H2O group at each concentration)/(mean ODmax of the positive drug group−mean OD of the H2O group)×100. EC50 was calculated by fitting Lg [concentration]-effect curves using GraphPad Prism5 software.
# (§5) Experimental results: the concentration for 50% of maximal effect (EC50) refers to a corresponding concentration of small molecules that can cause 50% of the maximal agonistic effect. […] EC50 represents a potency for agonizing the TLR8 receptor, with smaller values indicating better efficacy. […] In the following table, the unit of the agonist activity is nanomole, unless otherwise specified.
# hTLR8 = molecular target: T2, hTLR8 (Homo sapiens, UniProt Q9NR97); test: EC50 assay for small molecule agonists, HEK-Blue hTLR8 cells, SEAP readout; format: cell-based
# T2 construct: host or cells: HEK-Blue hTLR8 (HEK293-derived reporter cells with SEAP read-out)
# T2 sequence (Q9NR97 27-1041): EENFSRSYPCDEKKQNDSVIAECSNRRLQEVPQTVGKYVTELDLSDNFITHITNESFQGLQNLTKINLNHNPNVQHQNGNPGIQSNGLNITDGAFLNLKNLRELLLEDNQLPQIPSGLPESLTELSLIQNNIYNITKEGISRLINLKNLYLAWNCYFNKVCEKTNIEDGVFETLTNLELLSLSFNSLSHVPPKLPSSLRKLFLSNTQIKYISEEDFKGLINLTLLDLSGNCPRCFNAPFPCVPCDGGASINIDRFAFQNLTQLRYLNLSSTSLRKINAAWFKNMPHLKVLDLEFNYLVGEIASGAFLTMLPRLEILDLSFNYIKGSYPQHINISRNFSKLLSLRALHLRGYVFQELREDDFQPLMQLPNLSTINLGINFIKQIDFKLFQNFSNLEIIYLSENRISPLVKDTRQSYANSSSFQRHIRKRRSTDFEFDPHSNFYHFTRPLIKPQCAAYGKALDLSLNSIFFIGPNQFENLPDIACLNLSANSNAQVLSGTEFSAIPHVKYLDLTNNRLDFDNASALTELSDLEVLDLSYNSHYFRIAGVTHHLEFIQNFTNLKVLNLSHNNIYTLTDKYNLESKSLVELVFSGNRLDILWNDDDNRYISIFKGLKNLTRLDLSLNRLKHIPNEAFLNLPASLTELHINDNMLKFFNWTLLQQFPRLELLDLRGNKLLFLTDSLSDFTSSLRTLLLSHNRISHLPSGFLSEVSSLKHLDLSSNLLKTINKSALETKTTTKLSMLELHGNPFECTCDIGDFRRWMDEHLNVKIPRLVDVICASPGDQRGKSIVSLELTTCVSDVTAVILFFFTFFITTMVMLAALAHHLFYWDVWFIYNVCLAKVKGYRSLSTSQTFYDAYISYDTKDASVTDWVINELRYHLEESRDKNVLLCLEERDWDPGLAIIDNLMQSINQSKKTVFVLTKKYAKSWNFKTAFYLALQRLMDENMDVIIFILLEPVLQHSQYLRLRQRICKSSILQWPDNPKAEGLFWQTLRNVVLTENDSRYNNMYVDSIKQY
# Protocol: as §1, §2, §3, §4, §5
# [1] = agonist activity, read-out: hTLR8(EC50)
SMILES,EC50 (hTLR7) [nM],EC50 (hTLR8; [1]) [nM],EC50 (hTLR8; read-out: concentration for 50% of maximal effect (EC50) hTLR8) [nM]
CCCCCc1cc2nc(Cc3ccc(CN(C)C)cc3)ccc2nc1N [Compound N1],> 25000,398,
CCCCCc1cc2nc(Cc3ccc(CN4CCCC4)cc3)ccc2nc1N [Compound N2],> 25000,480,
CCCCCc1cc2nc(Cc3ccc(CN4CCOCC4)cc3)ccc2nc1N [Compound N3],> 25000,1580,
CCCCCc1cc(Cc2ccc(CN(C)C)cc2)c(C)nc1N [Compound N4],> 25000,58,
CCCCCc1cc(Cc2ccc(CN)cc2)c(C)nc1N [Compound N5],> 25000,122,
CCCCCc1cc(Cc2ccc(CNC)cc2)c(C)nc1N [Compound N6],> 25000,84,
CCCCCc1cc(Cc2ccc(CN(C)CC(=O)OC)cc2)c(C)nc1N [Compound N13],> 25000,3000,
CCCCCc1cc(Cc2ccc(CN(C)CC(=O)O)cc2)c(C)nc1N [Compound N14],> 25000,> 4000,
CCCCCc1cc(Cc2ccc(CN(C)CCC(=O)OC)cc2)c(C)nc1N [Compound N15],> 25000,628,
CCCCCc1cc(Cc2ccc(CN(C)CCC(=O)O)cc2)c(C)nc1N [Compound N16],> 25000,> 4000,
CCCCCc1cc(Cc2ccc(CN(C)C)cc2F)c(C)nc1N [Compound N23],> 25000,80,
CCCCCc1cc(Cc2ccc(CN3CC4(COC4)C3)cc2F)c(C)nc1N [Compound N24],> 25000,113,
CCCCCc1cc(Cc2ccc(CN(C)CCOCCOCCC(F)(F)P(=O)(OCC)OCC)cc2)c(C)nc1N [Compound N25],> 25000,> 4000,
CCCCCc1cc(Cc2ccc(CN(C)CCOCCOCCC(F)(F)P(=O)(O)O)cc2)c(C)nc1N [Compound N26],> 25000,> 4000,
CCCCCc1cc(Cc2ccc(COC)cc2)c(C)nc1N [Compound N27],> 25000,> 4000,
COCCCc1cc(Cc2ccc(CN(C)C)cc2)c(C)nc1N [Compound N28],> 25000,> 4000,
COCCCc1cc(Cc2ccc(CN3CCCC3)cc2)c(C)nc1N [Compound N29],> 25000,> 4000,
COCCCc1cc(Cc2ccc(CN3CCN(C)CC3)cc2)c(C)nc1N [Compound N30],> 25000,> 4000,
CCCCCc1cc(Cc2ccc(CN(C)C)cc2)cnc1N [Compound N31],> 25000,248,
CCCCCc1cc(Cc2cccc(CN(C)C)c2)c(C)nc1N [Compound N32],> 25000,290,
CCCCCc1cc(Cc2ccccc2CO)c(C)nc1N [Compound N33],> 25000,> 4000,
CCCCCc1cc(Cc2ccccc2CN(C)C)c(C)nc1N [Compound N34],> 25000,> 4000,
CCCCCc1cc(Cc2ccccc2CN2CCCC2)c(C)nc1N [Compound N35],> 25000,> 4000,

# Next, values leading:
EC50 (hTLR7) [nM],EC50 (hTLR8; [1]) [nM],EC50 (hTLR8; read-out: concentration for 50% of maximal effect (EC50) hTLR8) [nM],SMILES
> 25000,63,,CCCCCc1cc(Cc2ccc(CN3CCCC3)cc2)c(C)nc1N [Compound N7]
> 25000,428,,CCCCCc1cc(Cc2ccc(CN3CCOCC3)cc2)c(C)nc1N [Compound N8]
> 25000,54,40,CCCCCc1cc(Cc2ccc(CN3CCCCC3)cc2)c(C)nc1N [Compound N9]
> 25000,134,,CCCCCc1cc(Cc2ccc(CN3CCNCC3)cc2)c(C)nc1N [Compound N10]
> 25000,151,,CCCCCc1cc(Cc2ccc(CN3CCN(C)CC3)cc2)c(C)nc1N [Compound N11]
> 25000,109,,CCCCCc1cc(Cc2ccc(CN3CCCCCC3)cc2)c(C)nc1N [Compound N12]
> 25000,121,,CCCCCc1cc(Cc2ccc(CN3CCC3)cc2)c(C)nc1N [Compound N17]
> 25000,124,,CCCCCc1cc(Cc2ccc(CN3CC[C@H](O)C3)cc2)c(C)nc1N [Compound N18]
> 25000,104,,CCCCCc1cc(Cc2ccc(CN3CC[C@@H](O)C3)cc2)c(C)nc1N [Compound N19]
> 25000,130,,CCCCCc1cc(Cc2ccc(CNC3CC3)cc2)c(C)nc1N [Compound N20]
> 25000,117,,CCCCCc1cc(Cc2ccc(CN3CC(O)C3)cc2)c(C)nc1N [Compound N21]
> 25000,81,,CCCCCc1cc(Cc2ccc(CN3CC4(COC4)C3)cc2)c(C)nc1N [Compound N22]

# — patent US20240116962A1, “PYRIDINE-2-AMINE DERIVATIVE AND PHARMACEUTICAL COMPOSITION AND USE THEREOF” (TSINGHUA UNIVERSITY, priority 2020, published 2024)
